Data as given in ChEMBL document CHEMBL3751666, “Efficiently functionalized oxacalix[4]arenes: Synthesis, characterization and exploration of their biological profile as novel HDAC inhibitors” (2016).
Values after ≈ are worked out from the molar mass of the structure shown. Where a name gives a salt, the structure may show the parent alone.

What was measured:
Assay type in all cases: functional
Streptococcus pyogenes = experiment: Antibacterial activity against Streptococcus pyogenes by broth micro-dilution method
Escherichia coli = experiment: Antibacterial activity against Escherichia coli by broth micro-dilution method
Aspergillus niger = experiment: Antifungal activity against Aspergillus niger by broth micro-dilution method
HeLa = experiment: Cytotoxicity against human HeLa cells; settings: for CC50: read-out: LC50 (the source's name)
Pseudomonas aeruginosa = experiment: Antibacterial activity against Pseudomonas aeruginosa by broth micro-dilution method
Aspergillus clavatus = experiment: Antifungal activity against Aspergillus clavatus by broth micro-dilution method
Staphylococcus aureus = experiment: Antibacterial activity against Staphylococcus aureus by broth micro-dilution method
Candida albicans = experiment: Antifungal activity against Candida albicans by broth micro-dilution method

Molecule: O=C(COc1cc2cc(c1)Oc1cc(c([N+](=O)[O-])cc1[N+](=O)[O-])Oc1cc(OCC(=O)Nc3nc4ccc(Br)cc4s3)cc(c1)Oc1cc(c([N+](=O)[O-])cc1[N+](=O)[O-])O2)Nc1nc2ccc(Br)cc2s1
- MIC (Streptococcus pyogenes): 25 µg/mL (≈ 22.3 µM)
- MIC (Escherichia coli): 1 µg/mL (≈ 0.894 µM)
- MIC (Aspergillus niger): 25 µg/mL (≈ 22.3 µM)
- GI50 (HeLa): 2.1 µM
- TGI (HeLa): 4.6 µM
- CC50 (HeLa): > 100 µM
- MIC (Pseudomonas aeruginosa): 1.75 µg/mL (≈ 1.56 µM)
- MIC (Aspergillus clavatus): 25 µg/mL (≈ 22.3 µM)
- MIC (Staphylococcus aureus): 1 µg/mL (≈ 0.894 µM)
- MIC (Candida albicans): 25 µg/mL (≈ 22.3 µM)

Molecule: O=C(COc1cc2cc(c1)Oc1cc(c([N+](=O)[O-])cc1[N+](=O)[O-])Oc1cc(OCC(=O)Nc3cccc4cccnc34)cc(c1)Oc1cc(c([N+](=O)[O-])cc1[N+](=O)[O-])O2)Nc1cccc2cccnc12
- MIC (Streptococcus pyogenes): 50 µg/mL (≈ 52.7 µM)
- MIC (Escherichia coli): 50 µg/mL (≈ 52.7 µM)
- MIC (Aspergillus niger): 50 µg/mL (≈ 52.7 µM)
- GI50 (HeLa): 28.8 µM
- TGI (HeLa): 59.2 µM
- CC50 (HeLa): > 100 µM
- MIC (Pseudomonas aeruginosa): 3.12 µg/mL (≈ 3.29 µM)
- MIC (Aspergillus clavatus): 50 µg/mL (≈ 52.7 µM)
- MIC (Staphylococcus aureus): 50 µg/mL (≈ 52.7 µM)
- MIC (Candida albicans): 50 µg/mL (≈ 52.7 µM)

Molecule: O=C(COc1cc2cc(c1)Oc1cc(c([N+](=O)[O-])cc1[N+](=O)[O-])Oc1cc(OCC(=O)Nc3nc4ccccc4s3)cc(c1)Oc1cc(c([N+](=O)[O-])cc1[N+](=O)[O-])O2)Nc1nc2ccccc2s1
- MIC (Streptococcus pyogenes): 50 µg/mL (≈ 52 µM)
- MIC (Escherichia coli): 6.25 µg/mL (≈ 6.5 µM)
- MIC (Aspergillus niger): 50 µg/mL (≈ 52 µM)
- GI50 (HeLa): 10.3 µM
- TGI (HeLa): 19.4 µM
- CC50 (HeLa): > 100 µM
- MIC (Pseudomonas aeruginosa): 6.25 µg/mL (≈ 6.5 µM)
- MIC (Aspergillus clavatus): 12.5 µg/mL (≈ 13 µM)
- MIC (Staphylococcus aureus): 1 µg/mL (≈ 1.04 µM)
- MIC (Candida albicans): 50 µg/mL (≈ 52 µM)

Molecule: O=C(COc1cc2cc(c1)Oc1cc(c([N+](=O)[O-])cc1[N+](=O)[O-])Oc1cc(OCC(=O)N(c3ccccc3)c3ccccc3)cc(c1)Oc1cc(c([N+](=O)[O-])cc1[N+](=O)[O-])O2)N(c1ccccc1)c1ccccc1
- MIC (Streptococcus pyogenes): 3.12 µg/mL (≈ 3.13 µM)
- MIC (Escherichia coli): 1.75 µg/mL (≈ 1.75 µM)
- MIC (Aspergillus niger): 25 µg/mL (≈ 25 µM)
- GI50 (HeLa): 38.3 µM
- TGI (HeLa): 82.2 µM
- CC50 (HeLa): > 100 µM
- MIC (Pseudomonas aeruginosa): 1 µg/mL (≈ 1 µM)
- MIC (Aspergillus clavatus): 12.5 µg/mL (≈ 12.5 µM)
- MIC (Staphylococcus aureus): 1.75 µg/mL (≈ 1.75 µM)
- MIC (Candida albicans): 12.5 µg/mL (≈ 12.5 µM)

Molecule: COc1cccc2c1C(=O)c1c(O)c3c(c(O)c1C2=O)C[C@@](O)(C(=O)CO)C[C@@H]3O[C@H]1C[C@H](N)[C@H](O)[C@H](C)O1 [DOXORUBICIN HYDROCHLORIDE]
- GI50 (HeLa): < 0.1 µM
- TGI (HeLa): < 0.1 µM
- CC50 (HeLa): 95.5 µM

Molecule: COC1=CC(=O)C[C@@H](C)[C@]12Oc1c(Cl)c(OC)cc(OC)c1C2=O [GRISEOFULVIN]
- MIC (Aspergillus niger): 10 µg/mL (≈ 28.3 µM)
- MIC (Aspergillus clavatus): 10 µg/mL (≈ 28.3 µM)
- MIC (Candida albicans): 50 µg/mL (≈ 142 µM)

Molecule: O=C(COc1cc2cc(c1)Oc1cc(c([N+](=O)[O-])cc1[N+](=O)[O-])Oc1cc(OCC(=O)Nc3nc4ccc([N+](=O)[O-])cc4s3)cc(c1)Oc1cc(c([N+](=O)[O-])cc1[N+](=O)[O-])O2)Nc1nc2ccc([N+](=O)[O-])cc2s1
- MIC (Streptococcus pyogenes): 1.75 µg/mL (≈ 1.67 µM)
- MIC (Escherichia coli): 12.5 µg/mL (≈ 11.9 µM)
- MIC (Aspergillus niger): 42.9 µg/mL (≈ 40.8 µM)
- GI50 (HeLa): 41.3 µM
- TGI (HeLa): 93.2 µM
- CC50 (HeLa): > 100 µM
- MIC (Pseudomonas aeruginosa): 50 µg/mL (≈ 47.6 µM)
- MIC (Aspergillus clavatus): 50 µg/mL (≈ 47.6 µM)
- MIC (Staphylococcus aureus): 1.75 µg/mL (≈ 1.67 µM)
- MIC (Candida albicans): 50 µg/mL (≈ 47.6 µM)

Molecule: CCn1cc(C(=O)O)c(=O)c2cc(F)c(N3CCNCC3)cc21 [NORFLOXACIN]
- MIC (Streptococcus pyogenes): 1 µg/mL (≈ 3.13 µM)
- MIC (Escherichia coli): 1 µg/mL (≈ 3.13 µM)
- MIC (Pseudomonas aeruginosa): 1 µg/mL (≈ 3.13 µM)
- MIC (Staphylococcus aureus): 1 µg/mL (≈ 3.13 µM)

Molecule: O=C(COc1cc2cc(c1)Oc1cc(c([N+](=O)[O-])cc1[N+](=O)[O-])Oc1cc(OCC(=O)Nc3cccc4c3C(=O)c3ccccc3C4=O)cc(c1)Oc1cc(c([N+](=O)[O-])cc1[N+](=O)[O-])O2)Nc1cccc2c1C(=O)c1ccccc1C2=O
- MIC (Streptococcus pyogenes): 1 µg/mL (≈ 0.903 µM)
- MIC (Escherichia coli): 25 µg/mL (≈ 22.6 µM)
- MIC (Aspergillus niger): 50 µg/mL (≈ 45.2 µM)
- GI50 (HeLa): 53.4 µM
- TGI (HeLa): > 100 µM
- CC50 (HeLa): > 100 µM
- MIC (Pseudomonas aeruginosa): 1.75 µg/mL (≈ 1.58 µM)
- MIC (Aspergillus clavatus): 25 µg/mL (≈ 22.6 µM)
- MIC (Staphylococcus aureus): 50 µg/mL (≈ 45.2 µM)
- MIC (Candida albicans): 50 µg/mL (≈ 45.2 µM)

Molecule: O=C(Oc1cc2cc(c1)Oc1cc(c([N+](=O)[O-])cc1[N+](=O)[O-])Oc1cc(OC(=O)c3cccc4ccccc34)cc(c1)Oc1cc(c([N+](=O)[O-])cc1[N+](=O)[O-])O2)c1cccc2ccccc12
- MIC (Streptococcus pyogenes): 12.5 µg/mL (≈ 14.1 µM)
- MIC (Escherichia coli): 1.75 µg/mL (≈ 1.97 µM)
- MIC (Aspergillus niger): 12.5 µg/mL (≈ 14.1 µM)
- GI50 (HeLa): 16.3 µM
- TGI (HeLa): 32.6 µM
- CC50 (HeLa): > 100 µM
- MIC (Pseudomonas aeruginosa): 1.75 µg/mL (≈ 1.97 µM)
- MIC (Aspergillus clavatus): 12.5 µg/mL (≈ 14.1 µM)
- MIC (Staphylococcus aureus): 50 µg/mL (≈ 56.3 µM)
- MIC (Candida albicans): 25 µg/mL (≈ 28.1 µM)

Molecule: NYSTATIN
- MIC (Aspergillus niger): 10 µg/mL
- MIC (Aspergillus clavatus): 10 µg/mL
- MIC (Candida albicans): 10 µg/mL

Molecule: O=[N+]([O-])c1cc([N+](=O)[O-])c2cc1Oc1cc(cc(OS(=O)(=O)c3cccc4cccnc34)c1)Oc1cc(c([N+](=O)[O-])cc1[N+](=O)[O-])Oc1cc(cc(OS(=O)(=O)c3cccc4cccnc34)c1)O2
- MIC (Streptococcus pyogenes): 12.5 µg/mL (≈ 13 µM)
- MIC (Escherichia coli): 6.25 µg/mL (≈ 6.49 µM)
- MIC (Aspergillus niger): 50 µg/mL (≈ 51.9 µM)
- GI50 (HeLa): 12.8 µM
- TGI (HeLa): 25.6 µM
- CC50 (HeLa): > 100 µM
- MIC (Pseudomonas aeruginosa): 12.5 µg/mL (≈ 13 µM)
- MIC (Aspergillus clavatus): 25 µg/mL (≈ 26 µM)
- MIC (Staphylococcus aureus): 3.12 µg/mL (≈ 3.25 µM)
- MIC (Candida albicans): 25 µg/mL (≈ 26 µM)

Molecule: O=[N+]([O-])c1cc([N+](=O)[O-])c2cc1Oc1cc(cc(OS(=O)(=O)c3cccc4ccccc34)c1)Oc1cc(c([N+](=O)[O-])cc1[N+](=O)[O-])Oc1cc(cc(OS(=O)(=O)c3cccc4ccccc34)c1)O2
- MIC (Streptococcus pyogenes): 12.5 µg/mL (≈ 13 µM)
- MIC (Escherichia coli): 3.12 µg/mL (≈ 3.25 µM)
- MIC (Aspergillus niger): 50 µg/mL (≈ 52 µM)
- GI50 (HeLa): 31.3 µM
- TGI (HeLa): 61.3 µM
- CC50 (HeLa): > 100 µM
- MIC (Pseudomonas aeruginosa): 3.12 µg/mL (≈ 3.25 µM)
- MIC (Aspergillus clavatus): 50 µg/mL (≈ 52 µM)
- MIC (Staphylococcus aureus): 6.25 µg/mL (≈ 6.5 µM)
- MIC (Candida albicans): 12.5 µg/mL (≈ 13 µM)

Molecule: CC1(C)S[C@@H]2[C@H](NC(=O)[C@H](N)c3ccccc3)C(=O)N2[C@H]1C(=O)O [AMPICILLIN]
- MIC (Streptococcus pyogenes): 10 µg/mL (≈ 28.6 µM)
- MIC (Escherichia coli): 1 µg/mL (≈ 2.86 µM)
- MIC (Staphylococcus aureus): 2 µg/mL (≈ 5.72 µM)

Molecule: GENTAMICIN
- MIC (Streptococcus pyogenes): 0.05 µg/mL
- MIC (Escherichia coli): 0.005 µg/mL
- MIC (Pseudomonas aeruginosa): 1 µg/mL
- MIC (Staphylococcus aureus): 0.025 µg/mL

Molecule: O=C(COc1cc2cc(c1)Oc1cc(c([N+](=O)[O-])cc1[N+](=O)[O-])Oc1cc(OCC(=O)Nc3nc4ccc(Cl)cc4s3)cc(c1)Oc1cc(c([N+](=O)[O-])cc1[N+](=O)[O-])O2)Nc1nc2ccc(Cl)cc2s1
- MIC (Streptococcus pyogenes): 3.12 µg/mL (≈ 3.03 µM)
- MIC (Escherichia coli): 6.25 µg/mL (≈ 6.07 µM)
- MIC (Aspergillus niger): 50 µg/mL (≈ 48.6 µM)
- GI50 (HeLa): 13.7 µM
- TGI (HeLa): 28.6 µM
- CC50 (HeLa): > 100 µM
- MIC (Pseudomonas aeruginosa): 6.25 µg/mL (≈ 6.07 µM)
- MIC (Aspergillus clavatus): 50 µg/mL (≈ 48.6 µM)
- MIC (Staphylococcus aureus): 12.5 µg/mL (≈ 12.1 µM)
- MIC (Candida albicans): 50 µg/mL (≈ 48.6 µM)

Molecule: COc1ccc2nc(NC(=O)COc3cc4cc(c3)Oc3cc(c([N+](=O)[O-])cc3[N+](=O)[O-])Oc3cc(OCC(=O)Nc5nc6ccc(OC)cc6s5)cc(c3)Oc3cc(c([N+](=O)[O-])cc3[N+](=O)[O-])O4)sc2c1
- MIC (Streptococcus pyogenes): 3.12 µg/mL (≈ 3.06 µM)
- MIC (Escherichia coli): 50 µg/mL (≈ 49 µM)
- MIC (Aspergillus niger): 25 µg/mL (≈ 24.5 µM)
- GI50 (HeLa): 20.1 µM
- TGI (HeLa): 39.4 µM
- CC50 (HeLa): > 100 µM
- MIC (Pseudomonas aeruginosa): 25 µg/mL (≈ 24.5 µM)
- MIC (Aspergillus clavatus): 12.5 µg/mL (≈ 12.2 µM)
- MIC (Staphylococcus aureus): 12.5 µg/mL (≈ 12.2 µM)
- MIC (Candida albicans): 50 µg/mL (≈ 49 µM)

Molecule: Cc1cccc2sc(NC(=O)COc3cc4cc(c3)Oc3cc(c([N+](=O)[O-])cc3[N+](=O)[O-])Oc3cc(OCC(=O)Nc5nc6c(C)cccc6s5)cc(c3)Oc3cc(c([N+](=O)[O-])cc3[N+](=O)[O-])O4)nc12
- MIC (Streptococcus pyogenes): 6.25 µg/mL (≈ 6.32 µM)
- MIC (Escherichia coli): 25 µg/mL (≈ 25.3 µM)
- MIC (Aspergillus niger): 25 µg/mL (≈ 25.3 µM)
- GI50 (HeLa): 7.7 µM
- TGI (HeLa): 13.4 µM
- CC50 (HeLa): > 100 µM
- MIC (Pseudomonas aeruginosa): 12.5 µg/mL (≈ 12.6 µM)
- MIC (Aspergillus clavatus): 12.5 µg/mL (≈ 12.6 µM)
- MIC (Staphylococcus aureus): 3.12 µg/mL (≈ 3.16 µM)
- MIC (Candida albicans): 25 µg/mL (≈ 25.3 µM)
